Where two headings read alike, the source gives them in different places.

The values that follow come from paper PMC1521118 (Environmental Health Perspectives, 1993).

For series [1], the system named is Bacillus subtilis-transforming DNA. The conditions noted are these: reactive species toward Bacillus subtilis-transforming DNA; cited from earlier work.
Series [2] concerns Salmonella typhimurium TA97.
In series [3] the test system is Salmonella typhimurium TA98.
For series [4] the following is noted: 10 female Wistar rats; at 15 months; cited from earlier work.
For series [5] the following is noted: Sprague-Dawley rats; cited from earlier work.
Series [6] deals with mouse sarcoma 180 cells. The following applies: mouse sarcoma 180 cells in vitro; cited from earlier work.
The test system of series [7] is sarcoma 180 ascites cells. The conditions noted are these: mice bearing sarcoma 180 ascites cells; cited from earlier work.
The test system of series [8] is Salmonella typhimurium TA98. The following applies: ref 35 (McCartney et al.); cited from earlier work.
The subject of series [9] is sulfotransferase. The following applies: cited from earlier work.
For series [10] the following is noted: rat, in vivo; cited from earlier work.
Series [11] has as its system cytochrome P450. The conditions noted are these: phenobarbital-inducible cytochrome P450, presumably CYP2B; cited from earlier work.
Setting [12] is: absence of S9, 100 ng/plate or less.
Where [13] appears, read: with (+) Aroclor 1254 rat hepatic S9 10% v/v, 100 ng/plate.

In the case of `CC(=O)On1cnc2ncnc-2c1N` [1-acetoxyadenine], the mutagenicity entry in series [1] is “weak mutagen”.

Regarding `Nc1ccc2cc3ccccc3cc2c1` [2-Aminoanthracene, reference compound], the “histidine revertants/plate, TA97” value in series [2] (Salmonella typhimurium) was 600 histidine revertants/plate. Also, in series [3] (Salmonella typhimurium), the “histidine revertants/plate, TA98” value is reported as 865 histidine revertants/plate.

As to `ONc1ncnc2nc[nH]c12` [6-Hydroxylaminopurine], the “reversion rate relative to spontaneous reversion rate, TA97” value in [2] (1 ng/plate, without metabolic activation) is recorded as “twice the spontaneous reversion rate”. Further, the “toxicity toward TA97” value in series [2] (100 ng/plate) is reported as “toxic”. Further, the “histidine revertants/plate, TA97” value in series [2] (with (+) S9, 1 ng/plate) is recorded as 113 + 4 histidine revertants/plate. Also, the “toxicity toward TA98” value in [3] (1 ng/plate) was “still toxic”; in series [3] (100 ng/plate) it was “toxic”; in series [3] (concentration not given) it was “extremely toxic”. Further, the “histidine revertants/plate, TA98” value is recorded as “toxic” in series [3] (with (+) S9, 1 ng/plate) and “toxic” in series [3] (without (-) S9, 1 ng/plate). In addition, the tumors produced entry in series [4] was “only one tumor”. Also, in series [5], the oncogenicity result is “completely inactive”. For the same compound, in series [6], the effect on cells result is “induced mitotic inhibition and nuclear degeneration”. Moreover, the survival time result in [7] is “prolonged the survival time”. The “mutagenicity toward TA98” value in series [8] is “inactive”.

With `ONc1ncnc2c1ncn2Cc1ccccc1` [9-Benzyl-6-hydroxylaminopurine], in series [2] (setting [12]), the “mutagenic activity toward TA97 (in words)” value is reported as “highly active”. Moreover, in series [3] (setting [12]), the “mutagenic activity toward TA98 (in words)” value was “inactive”.

For `Nc1ncnc2c1ncn2Cc1ccccc1` [9-Benzyladenine], the “histidine revertants/plate, TA98” value in [3] (with (+) S9, 100 ng/plate) is 131 + 18 histidine revertants/plate.

With `Cn1cnc2c(N)[n+]([O-])cnc21` [9-Methyladenine-1-N-oxide], the “histidine revertants/plate, TA98” value in [3] (with (+) S9, 100 ng/plate) is 118 + 9 histidine revertants/plate.

For the compound `Cn1cnc2c(N)ncnc21` [9-Methyladenine], the “histidine revertants/plate, TA97” value in [2] (setting [13]) is on record as 88 + 4 histidine revertants/plate. In addition, the “histidine revertants/plate, TA98” value in [3] (without (-) S9, 100 ng/plate) is listed as 21 + 6 histidine revertants/plate.

Take `Nc1c2[nH]cnc2nc[n+]1[O-]` [Adenine-1-N-oxide]: the “histidine revertants/plate, TA98” value in series [3] (without (-) S9, 100 ng/plate) is 19 + 6 histidine revertants/plate. Also, the “activity as a sulfate acceptor” value in [9] was “inactive”. For the same compound, the tumor production entry in series [10] is “failed to produce tumors”.

Turning to `Nc1ncnc2nc[nH]c12` [Adenine], in [2] (setting [13]), the “histidine revertants/plate, TA97” value is given as 104 + 12 histidine revertants/plate. Also, the “histidine revertants/plate, TA98” value in series [3] (with (+) S9, 100 ng/plate) is recorded as 76 + 11 histidine revertants/plate. Besides, the “oxidation to adenine-1-N-oxide” value in [11] is “failed to oxidize”.
